Test results as given in patent publication US7183383B2, “Uses of collagen IV” (The University of Arkansas for Medical Sciences, priority 2002, dated 2007).

What was measured:
Format in all cases: cell-based, rabbit
[1] = system: renal proximal tubular cells; assay: Cell density (monolayer protein content) in DCVC-injured RPTC
Description: Rabbit renal proximal tubules were isolated using the iron oxide perfusion method and grown in 35-mm tissue culture dishes or 48-well cell culture clusters under improved conditions as previously described (35, 36). The cell culture medium was a 1:1 mixture of DMEM/Ham's F-12 (without D-glucose, phenol red, or sodium pyruvate) supplemented with 15 mM HEPES buffer, 2.5 mM L-glutamine, 1 μM pyridoxine HCl, 15 mM sodium bicarbonate, and 6 mM lactate. Hydrocortisone (50 nM), selenium (5 ng/ml), human transferrin (5 μg/ml), bovine insulin (10 nM), and L-ascorbic acid-2-phosphate (50 μM or 500 μM) were added to fresh culture medium immediately prior to daily media change. L-Ascorbic acid-2-phosphate (AscP) was used due to the fact that L-ascorbic acid is unstable in culture media. AscP is stable in culture media for ≧7 days at 37° C. and, after intracellular dephosphorylation, has the same effect on cultured cells as L-ascorbic acid (13).
(§1) Confluent monolayers of renal proximal tubular cells (day 6 after seeding) were exposed to 200 μM S-(1,2-dichlorovinyl)-L-cysteine (dissolved in water) for 1.75 hours followed by toxicant removal and addition of fresh culture media. This method produces approximately 50% cell death and loss 24 hours after the exposure. On days 1, 4, and 6 following S-(1,2-dichlorovinyl)-L-cysteine exposure, the ability of the remaining renal proximal tubular cells to regenerate and repair physiological function was monitored as described below. In some experiments, immediately after S-(1,2-dichlorovinyl)-L-cysteine exposure and after daily media change through day 6 after injury, collagen I (0, 5, 15, or 50 μg/ml), collagen IV (0, 5, 15, or 50 μg/ml), laminin (50 μg/ml), or cellular fibronectin (50 μg/ml) was added to the culture media of uninjured and S-(1,2-dichlorovinyl)-L-cysteine-injured renal proximal tubular cells grown in physiological concentrations of AscP. Exogenous collagens I and IV used in this study were triple helical and contained only α1 and α2 chains in conformations similar to those found in the renal basement membrane (3, 25). Laminin was a mixture of biologically active laminin chains found in most epithelial tissues (8, 50) and cellular fibronectin was composed of functional dimers (51).
Measurement of monolayer protein content over time was used to estimate cell density. On days 1, 4, and 6 after sublethal S-(1,2-dichlorovinyl)-L-cysteine injury, renal proximal tubular cell monolayers were washed with PBS and solubilized in Triton buffer (0.05% Triton X-100, 100 mM Tris-Base, 150 mM NaCl, pH 7.5). Samples were sonicated and protein concentrations determined using the method of Lowry (26) or the bicinchoninic acid microassay according to the manufacturer's instructions (Pierce, Rockford, Ill.).

[2] = system: Na^+/K^+-ATPase activity in renal proximal tubular cells; assay: Na^+/K^+-ATPase activity (ouabain-sensitive ATPase)
Description: as §1
On days 1 and 6 after sublethal S-(1,2-dichlorovinyl)-L-cysteine injury, total ATPase activity was measured using a modification of a previously described procedure (44). Briefly, renal proximal tubular cells cultured in 48-well cell culture clusters were scraped and incubated in dissociation buffer (5 mM HEPES (pH 7.4), 25 mM imidazole, 1% BSA, 0.065% sodium dodecyl sulfate (SDS)) for 10 min. at room temperature and placed on ice. The dissociated renal proximal tubular cells were then diluted 5-fold with additional dissociation buffer minus SDS. Aliquots of dissociated renal proximal tubular cells were combined with fresh ATPase assay buffer (2.54 mM MgCl2, 100 mM NaCl, 10 mM KCl, 5 mM HEPES, 10 U/ml lactate dehydrogenase, 7 U/ml pyruvate kinase, 2.54 mM Na2ATP, 2.54 mM phospho(enol)pyruvate, and 0.5 mM β-NADH). ATPase activity was measured under linear conditions spectrophotometrically as the oxidation of β-NADH to NAD^+ at 37° C. in the absence or presence of ouabain (0.1 mM) at a wavelength of 340 nm. Na^+/K^+-ATPase activity was calculated as total ATPase activity minus ouabain-insensitive ATPase activity.
Confluent monolayers of renal proximal tubular cells (day 6 after seeding) were exposed to 200 μM S-(1,2-dichlorovinyl)-L-cysteine (dissolved in water) for 1.75 hours followed by toxicant removal and addition of fresh culture media. This method produces approximately 50% cell death and loss 24 hours after the exposure. In some experiments, exogenous collagen IV (50 μg/ml), collagen I (50 μg/ml), or function-stimulating antibodies to collagen-binding integrin subunits α2 or β1 (5 μg/ml) was added daily to the culture media of S-(1,2-dichlorovinyl)-L-cysteine-injured renal proximal tubular cells cultured in the absence of pharmacological concentrations of L-ascorbic acid-2-phosphate. Function-stimulating antibodies to collagen-binding integrin α1 are not commercially available at this time. On days 1 and 6 following S-(1,2-dichlorovinyl)-L-cysteine exposure, active Na^+ transport or Na^+/K^+-ATPase activity, and collagen-binding integrin expression and/or localization in the remaining sublethally injured renal proximal tubular cells was determined as described below.
Total ATPase activity was measured as described above. […]

[3] = system: collagen-binding integrin subunits α1, α2, and β1; assay: Subcellular localization of CBIs by confocal microscopy; conditions: for CBIs on the apical membrane of injured RPTC: by day 6 after DCVC; for CBIs on the apical membrane of injured RPTC / basal localization of CBI subunits α1, α2, and β1 in injured RPTC: pharmacological AscP or exogenous collagen IV
Description: Collagen-binding integrin localization was determined using confocal microscopy of renal proximal tubular cell monolayers stained with monoclonal antibodies to integrin subunits α1, α2, and β1. Renal proximal tubular cell monolayers were washed 3 times with PBS and fixed with 10% buffered formalin (4% formaldehyde) for 20 minutes at room temperature. After 3 washes with PBS, monolayers were permeabilized in PTB buffer (PBS+0.3% Triton X-100+0.1% BSA) for 10 minutes at room temperature. Monolayers were washed 3 times with 0.1% BSA in PBS and incubated with 8% BSA in PBS for 30 minutes at room temperature. BSA (1%) in PBS containing 5 μg/ml of specific integrin antibodies or non-specific IgG was added to renal proximal tubular cell monolayers and incubated overnight a t 4° C. with moderate shaking. Following 3 washes with PTB buffer, monolayers were incubated for 2 hours in the dark at room temperature with 1% BSA in PBS containing a 1:100 dilution of a FITC-conjugated goat anti-mouse IgG. Monolayers were washed 3 times with PTB, and glass coverslips were applied after the addition of 2–3 drops of mounting media. Confocal microscopy was performed using a Zeiss confocal laser scanning microscope (Model 410, Carl Zeiss, Inc., Thornwood, N.Y.). Basal and apical membrane locations were determined visually in the Z-plane using light field microscopy. Two to three photomicrographs per monolayer at the basal and apical membranes were then scanned with an omnichrome laser filtered at 488 nm to detect FITC.

| Molecule | cell death and loss ([1]; 200 μM for 1.75 hours, 24 hours after the exposure) | decrease in monolayer protein content compared to control ([1]; day 1 after DCVC (200 μM), RPTC cultured in 50 μM AscP) | decrease in Na^+/K^+-ATPase activity ([2]; one day after DCVC (200 μM), both 50 μM and 500 μM AscP) | apical membrane distribution of CBI subunits α1, α2, and β1 ([3]; day 1 after DCVC injury) | CBI α1, α2, and β1 staining at the basal membrane ([3]; day 1 following DCVC) | apical membrane distribution of CBIs ([3]; day 6 after DCVC injury) | basal localization of CBI subunits α1, α2, and β1 ([3]; day 6 after DCVC, absence of pharmacological AscP or collagen IV) | decrease in monolayer cell density ([1]; day 1 after DCVC injury, in presence of exogenous protein) | monolayer protein content in injured RPTC ([1]; day 1 or day 6 after DCVC, 50 μg/ml) | cell density as percent of that of uninjured RPTC ([1]; day 6 after DCVC injury, in presence of exogenous protein) | monolayer cell density in untreated RPTC ([1]; uninjured RPTC, days 1 or 6, exogenous protein) | Na^+/K^+-ATPase activity in injured RPTC ([2]; day 6 after DCVC injury, 50 μg/ml) | CBIs on the apical membrane of injured RPTC [3] | basal localization of CBI subunits α1, α2, and β1 in injured RPTC ([3]; day 6 after DCVC) | monolayer protein content ([1]; 4 days after DCVC, 50 μM or 500 μM AscP) | monolayer protein content greater than that of DCVC-treated RPTC grown in 50 μM AscP ([1]; 6 days after DCVC, 500 μM AscP) | cell death and loss (decrease in monolayer protein content) ([1]; day 1 after DCVC, RPTC cultured in 500 μM AscP) | monolayer protein content, untreated RPTC, 50 μM vs 500 μM ([1]; uninjured RPTC, any time point) | Na^+/K^+-ATPase activity higher than in injured RPTC in physiological AscP ([2]; day 6 after DCVC, 500 μM AscP) | Na^+/K^+-ATPase activity, untreated RPTC, 50 μM vs 500 μM ([2]; uninjured RPTC) |
| --- | --- | --- | --- | --- | --- | --- | --- | --- | --- | --- | --- | --- | --- | --- | --- | --- | --- | --- | --- | --- |
| N[C@@H](CSC(Cl)=CCl)C(=O)O [S-(1,2-dichlorovinyl)-L-cysteine] | approximately 50% | 56% | ~65% | partially redistributed to the apical membrane | decreased compared to controls | continued to exhibit CBI is distributed to the apical membrane | still decreased compared to sub-confluent controls |  |  |  |  |  |  |  |  |  |  |  |  |  |
| collagen IV: Human placenta collagen IV (Sigma); triple helical, containing only α1 and α2 chains |  |  |  |  |  |  |  | approximately 50% | no change | approximately 50% | no effect | significantly increased | complete disappearance | return to control levels |  |  |  |  |  |  |
| O=C1O[C@H]([C@@H](O)CO)C(O)=C1OP(=O)(O)O [L-ascorbic acid-2-phosphate, L-Ascorbic acid-2-phosphate] |  |  |  |  |  |  |  |  |  |  |  |  | complete disappearance | return to control levels | remained at day 1 levels | 34% | 55% | no significant differences | approximately 150% | equivalent at all time points |
